Test results taken from patent US6159983A, “Method and composition for treatment of inflammatory bowel disease” (University of Florida, priority 1998, dated 2000).

Assays:
[1] = tested on: acetic acid-induced colitis; experiment: Acetic acid-induced colitis in the rat (pre-treatment, intrarectal); type: in vivo, rat (Sprague-Dawley); conditions: for effectiveness against acetic acid-induced colitis: i.r., 650 μmol/kg, before acetic acid, rat
From the text: A typical model of IBD in acetic acid-induced colitis in the rat has been described by Krawisz et al in Amer. J. Proc. Gastro. Col. Rec. Surg., Vol. 31, pages 11-18 (1980); and by Sharon et al in Gastroenterology, Vol. 88, pages 55-63 (1985) and Vol. 86, pages 453-460 (1984). Acetic acid-induced colitis is characterized by the movement of inflammatory cells into the colon, with the number of such cells in the mucosa being measured by the activity of myeloperoxidase, a marker enzyme for these cells. Positive desirable activity is indicated by a reduction in the high levels of myeloperoxidase caused by acetic acid.
Typically, Sprague-Dawley rats from Charles River Laboratories, Portage, Michigan (either sex, weight approximately 250 g) are dosed with test compounds and controls. Thereafter, the rats are given an intracolonic enema of acetic acid which produces a severe inflammatory response in the colon of a healthy rat characterized by rectal bleeding, diarrhea, epithelial erosions and destructions of crypts and gland cells. Twenty-four hours later, the test and control animals are sacrificed and the distal ten centimeters of the colons are removed and opened longitudinally. The tissue lesions contained within the removed, opened section of the colons are scored.
After the systematic evaluation of the impact of various fasting times, use of vehicles, the time interval between pre-treatment and administration of the acetic acid and altering the concentration of acetic acid, the final protocol for the experiments is to fast the rats for 30 hours in hanging wire cages, anesthetize the animals with sodium pentobarbital, administer the test drug 1 cc intrarectally (i.r.) either as a suspension or a solution in water, and to give the acetic acid (7.5% in water) 1 cc i.r. 30 minutes later. The rats are sacrificed 24 hours later and the colons are removed and assessed for damage.

Crohn's disease = conditions: multiple controlled trials and a recent meta-analysis; cited from earlier work
[2] = patients treated long-term with 6MP or AZA for IBD; cited from earlier work
ulcerative colitis = conditions: cited from earlier work
[3] = Iron binding in a test tube
[4] = Iron chelation when given to rats orally or subcutaneously; type: in vivo; conditions: orally or subcutaneously (s.c.)
[5] = tested on: acetic acid-induced colitis; experiment: Reversal studies: compound given 30 minutes after acetic acid; type: in vivo; conditions: given 30 minutes after 2.5% acetic acid; rat
[6] = Preliminary acute toxicity studies in mice; type: in vivo

## C[C@]1(C(=O)O)CSC(c2ncccc2O)=N1 [DFT, reference compound]
[1]
  effectiveness against acetic acid-induced colitis: ineffective

## Sc1ncnc2nc[nH]c12 [6MP, 6-Mercaptopurine]
Crohn's disease
  efficacy in Crohn's disease: support the efficacy
[2]
  dose-related leukopenia, patients affected: 2-5%

## CC(=O)N(O)CCCCCNC(=O)CCC(=O)N(O)CCCCCNC(=O)CCC(=O)N(O)CCCCCN [DFO, reference compound]
[1]
  effectiveness against acetic acid-induced colitis: ineffective

## O=C(O)c1cc(/N=N/c2ccc(S(=O)(=O)Nc3ccccn3)cc2)ccc1O [sulfasalazine]
Ulcerative colitis
  effectiveness for the treatment of acute UC: effective to some degree in some patients

## Nc1ccc(O)c(C(=O)O)c1 [mesalamine, 5-aminosalicylic acid]
Ulcerative colitis
  effectiveness for the treatment of acute UC: effective to some degree in some patients

## Cn1cnc([N+](=O)[O-])c1Sc1ncnc2nc[nH]c12 [AZA, azathioprine]
Ulcerative colitis; several controlled trials
  use in ulcerative colitis: support the use
Crohn's disease
  efficacy in Crohn's disease: support the efficacy
[2]
  dose-related leukopenia, patients affected: 2-5%

## Cc1ccc(O)c(C2=NC(C(=O)O)CC2)c1 (centres unmarked) [2H-pyrrolecarboxylic acid, 3,4-dihydro-5-(2-hydroxy-5-methylphenyl)-2H-pyrrole-2-carboxylic acid]
[1]; 162.5 μmol/kg (41.5 mg/kg) at 1 cc i.r., rats
  dose response: prevention of severe lesions: severe lesions being prevented in a majority of rats
[1]; 650 μmol/kg vs. 1742 mmol/kg (so in the source), FIGS. 7 and 8
  head-to-head comparison with 5-ASA or its commercially available formulation (Rowasa): far superior even at a much lower dose
[1]; FIGS. 2-8
  damage to the colons compared with control rats: considerably less damage
[1]; expanded experiments
  damage in the colons of the rats, expanded experiments: very little damage
[1]; i.r. at 650 μmol/kg (165 mg/kg N-methylhydroxamate or 166 mg/kg 2H-pyrrolecarboxylic acid), 30 minutes before acetic acid, FIGS. 2-8
  damage in the colons of the test animals: very little damage
[3]
  iron binding: binds iron remarkably well
[4]
  activity as an iron chelator: inactive
[5]
  lesions compared with the control group: less severe and less active
  state of the lesions (resolution, histology): apparently resolving and with some lamina proprial fibrosis and considerable hyper-plasia of submucosal lymphoid tissue
[6]; i.p., at doses up to 1 g/kg
  deaths: no deaths
[6]; preliminary
  acute toxicity: virtually non-toxic
